# Assay results from patent US6737383B1, “Herbicidal oxadiazolidines” (priority 1999, dated 2004).
# Assays:
# crabgrass = test: Test B pre/postemergence crabgrass; format: in vivo, Digitaria sanguinalis
# Summary of the method: (§1)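 Test chemicals in a non-phytotoxic solvent mixture with surfactant were sprayed preemergence onto planted seeds and postemergence onto plants 2 to 18 cm tall (1- to 4-leaf stage). After twelve to sixteen days in a greenhouse, injury was visually rated against untreated controls from 0 (no effect) to 10 (complete control).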
# morningglory = test: Test B pre/postemergence morningglory; format: in vivo, Ipomoea hederacea
# Summary of the method: as §1
# blackgrass = test: Test B pre/postemergence blackgrass; format: in vivo, Alopecurus myosuroides
# Summary of the method: as §1
# sugar beet = test: Test B pre/postemergence sugar beet; format: in vivo, Beta vulgaris
# Summary of the method: as §1
# wild oat = test: Test B pre/postemergence wild oat; format: in vivo, Avena fatua
# Summary of the method: as §1
# corn = test: Test B pre/postemergence corn; format: in vivo, Zea mays
# Summary of the method: as §1
# purple nutsedge = test: Test B pre/postemergence purple nutsedge; format: in vivo, Cyperus rotundus
# Summary of the method: as §1
# rape = test: Test B pre/postemergence rape; format: in vivo, Brassica napus
# Summary of the method: as §1
# wheat = test: Test B pre/postemergence wheat; format: in vivo, Triticum aestivum
# Summary of the method: as §1
# pigweed = test: Test B pre/postemergence pigweed; format: in vivo, Amaranthus retroflexus
# Summary of the method: as §1
# cocklebur = test: Test B pre/postemergence cocklebur; format: in vivo, Xanthium strumarium
# Summary of the method: as §1
# bedstraw = test: Test B pre/postemergence bedstraw; format: in vivo, Galium aparine
# Summary of the method: as §1
# giant foxtail = test: Test B pre/postemergence giant foxtail; format: in vivo, Setaria faberii
# Summary of the method: as §1
# soybean = test: Test B pre/postemergence soybean; format: in vivo, Glycine max
# Summary of the method: as §1
# surinam grass = test: Test B pre/postemergence surinam grass; format: in vivo, Brachiaria decumbens
# Summary of the method: as §1
# velvetleaf = test: Test B pre/postemergence velvetleaf; format: in vivo, Abutilon theophrasti
# Summary of the method: as §1
# [1] = Postemergence, Rate 62 g/ha, scale 0 to 10, 0 is no effect, 10 is complete control
# [2] = Postemergence, Rate 125 g/ha, scale of 0 to 10 where 0 is no effect and 10 is complete control
# [3] = Preemergence, Rate 62 g/ha, scale of 0 to 10 where 0 is no effect and 10 is complete control
# [4] = Preemergence, Rate 125 g/ha, scale of 0 to 10 where 0 is no effect and 10 is complete control
# [5] = Preemergence, Rate 250 g/ha, scale 0 (no effect) to 10 (complete control)
# [6] = Rate 250 g/ha, Postemergence, scale 0 to 10, 0 is no effect, 10 is complete control
# [7] = Rate 500 g/ha, Postemergence, scale 0 to 10, 0 is no effect, 10 is complete control
# [8] = Preemergence, Rate 500 g/ha, scale of 0 to 10 where 0 is no effect and 10 is complete control
compound,measurement,setting,value
CC(C)N(C(=O)n1oc(=O)n(CC(F)F)c1=O)c1ccc(F)cc1F [Compound 711],"Plant response rating, Crabgrass",crabgrass; [1],4
same,Crabgrass plant response rating,crabgrass; [2],8
same,Crabgrass plant response rating,crabgrass; [3],8
same,"Plant response rating, Crabgrass",crabgrass; [4],9
same,Crabgrass plant response rating,crabgrass; [5],10
same,Crabgrass plant response rating,crabgrass; [6],9
same,Crabgrass plant response rating,crabgrass; [7],10
same,"Plant response rating, Morningglory",morningglory; [1],2
same,Morningglory plant response rating,morningglory; [2],2
same,Morningglory plant response rating,morningglory; [3],0
same,"Plant response rating, Morningglory",morningglory; [4],1
same,Morningglory plant response rating,morningglory; [5],3
same,Morningglory plant response rating,morningglory; [6],4
same,Morningglory plant response rating,morningglory; [7],4
same,"Plant response rating, Blackgrass",blackgrass; [1],3
same,Blackgrass plant response rating,blackgrass; [2],7
same,Blackgrass plant response rating,blackgrass; [3],6
same,"Plant response rating, Blackgrass",blackgrass; [4],6
same,Blackgrass plant response rating,blackgrass; [5],8
same,"Plant response rating, Blackgrass",blackgrass; [8],9
same,Blackgrass plant response rating,blackgrass; [6],7
same,Blackgrass plant response rating,blackgrass; [7],7
same,"Plant response rating, Sugarbeets",sugar beet; [1],1
same,Sugarbeets plant response rating,sugar beet; [2],2
same,Sugarbeets plant response rating,sugar beet; [3],5
same,"Plant response rating, Sugarbeets",sugar beet; [4],6
same,Sugarbeets plant response rating,sugar beet; [5],8
same,Sugarbeets plant response rating,sugar beet; [6],2
same,Sugarbeets plant response rating,sugar beet; [7],3
same,"Plant response rating, Wild oats",wild oat; [1],0
same,Wild oats plant response rating,wild oat; [2],0
same,Wild oats plant response rating,wild oat; [3],7
same,"Plant response rating, Wild oats",wild oat; [4],7
same,Wild oats plant response rating,wild oat; [5],9
same,Wild oats plant response rating,wild oat; [6],2
same,Wild oats plant response rating,wild oat; [7],4
same,"Plant response rating, Corn",corn; [1],0
same,Corn plant response rating,corn; [2],0
same,Corn plant response rating,corn; [3],0
same,"Plant response rating, Corn",corn; [4],0
same,Corn plant response rating,corn; [5],0
same,Corn plant response rating,corn; [6],0
same,Corn plant response rating,corn; [7],4
same,"Plant response rating, Nutsedge",purple nutsedge; [1],0
same,Nutsedge plant response rating,purple nutsedge; [2],0
same,Nutsedge plant response rating,purple nutsedge; [3],0
same,Nutsedge plant response rating,purple nutsedge; [5],0
same,Nutsedge plant response rating,purple nutsedge; [6],3
same,Nutsedge plant response rating,purple nutsedge; [7],5
same,"Plant response rating, Rape",rape; [1],0
same,Rape plant response rating,rape; [2],0
same,Rape plant response rating,rape; [3],1
same,"Plant response rating, Rape",rape; [4],6
same,Rape plant response rating,rape; [5],7
same,Rape plant response rating,rape; [6],2
same,Rape plant response rating,rape; [7],4
same,"Plant response rating, Wheat",wheat; [1],0
same,Wheat plant response rating,wheat; [2],0
same,Wheat plant response rating,wheat; [3],2
same,"Plant response rating, Wheat",wheat; [4],6
same,Wheat plant response rating,wheat; [5],8
same,Wheat plant response rating,wheat; [6],3
same,Wheat plant response rating,wheat; [7],5
same,"Plant response rating, Redroot pigweed",pigweed; [1],3
same,Redroot pigweed plant response rating,pigweed; [2],7
same,Redroot pigweed plant response rating,pigweed; [3],7
same,"Plant response rating, Redroot pigweed",pigweed; [4],7
same,Redroot pigweed plant response rating,pigweed; [5],9
same,Redroot pigweed plant response rating,pigweed; [6],9
same,Redroot pigweed plant response rating,pigweed; [7],10
same,"Plant response rating, Cocklebur",cocklebur; [1],1
same,Cocklebur plant response rating,cocklebur; [2],1
same,Cocklebur plant response rating,cocklebur; [3],0
same,"Plant response rating, Cocklebur",cocklebur; [4],0
same,Cocklebur plant response rating,cocklebur; [5],0
same,"Plant response rating, Cocklebur",cocklebur; [8],0
same,Cocklebur plant response rating,cocklebur; [6],2
same,Cocklebur plant response rating,cocklebur; [7],7
same,Bedstraw plant response rating,bedstraw; [3],2
same,"Plant response rating, Bedstraw",bedstraw; [4],3
same,Bedstraw plant response rating,bedstraw; [5],6
same,"Plant response rating, Bedstraw",bedstraw; [8],7
same,Bedstraw plant response rating,bedstraw; [6],8
same,"Plant response rating, Giant foxtail",giant foxtail; [1],6
same,Giant foxtail plant response rating,giant foxtail; [2],8
same,Giant foxtail plant response rating,giant foxtail; [3],10
same,"Plant response rating, Giant foxtail",giant foxtail; [4],10
same,Giant foxtail plant response rating,giant foxtail; [5],10
same,Giant foxtail plant response rating,giant foxtail; [6],9
same,Giant foxtail plant response rating,giant foxtail; [7],9
same,"Plant response rating, Soybean",soybean; [1],1
same,Soybean plant response rating,soybean; [2],4
same,Soybean plant response rating,soybean; [3],0
same,"Plant response rating, Soybean",soybean; [4],0
same,Soybean plant response rating,soybean; [5],0
same,Soybean plant response rating,soybean; [6],5
same,Soybean plant response rating,soybean; [7],6
same,"Plant response rating, B. signalgrass",surinam grass; [1],4
same,B. signalgrass plant response rating,surinam grass; [2],6
same,B. signalgrass plant response rating,surinam grass; [3],2
same,"Plant response rating, B. signalgrass",surinam grass; [4],2
same,B. signalgrass plant response rating,surinam grass; [5],7
same,"Plant response rating, B. signalgrass",surinam grass; [8],8
same,B. signalgrass plant response rating,surinam grass; [6],6
same,B. signalgrass plant response rating,surinam grass; [7],8
same,"Plant response rating, Velvetleaf",velvetleaf; [1],3
same,Velvetleaf plant response rating,velvetleaf; [2],5
same,Velvetleaf plant response rating,velvetleaf; [3],4
same,"Plant response rating, Velvetleaf",velvetleaf; [4],6
same,Velvetleaf plant response rating,velvetleaf; [5],6
same,Velvetleaf plant response rating,velvetleaf; [6],6
same,Velvetleaf plant response rating,velvetleaf; [7],6
